Source: patent US20230271954A1 (Gossamer Bio Services, Inc., priority 2020, published 2023)
pIC50: −log10 of the molar value.

Experiments:
[1] = biological target: T1, DGKζ (Homo sapiens, UniProt Q13574); test: DGKζ biochemical assay (ADP-Glo); details: read-out: DGK ζ IC50
T1 construct: purchased Carna 12-110

[2] = biological target: DGKα (Homo sapiens, UniProt P23743); test: DGKα biochemical assay (ADP-Glo); details: read-out: DGK α IC50
Method in brief: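 ADP-Glo kinase assay using OAG/PS (1:2) lipid substrate, sonicated, in HEPES pH 7.0 buffer with MgCl2, CaCl2, DTT, BSA, Triton X-100. Enzyme preincubated with compound 30 min at RT; substrate with ATP (DGKα: 400 μM) added, 45 min RT. Luminescence read; % inhibition vs DMSO and no-enzyme controls.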

Sequence of DGKα (P23743 whole entry): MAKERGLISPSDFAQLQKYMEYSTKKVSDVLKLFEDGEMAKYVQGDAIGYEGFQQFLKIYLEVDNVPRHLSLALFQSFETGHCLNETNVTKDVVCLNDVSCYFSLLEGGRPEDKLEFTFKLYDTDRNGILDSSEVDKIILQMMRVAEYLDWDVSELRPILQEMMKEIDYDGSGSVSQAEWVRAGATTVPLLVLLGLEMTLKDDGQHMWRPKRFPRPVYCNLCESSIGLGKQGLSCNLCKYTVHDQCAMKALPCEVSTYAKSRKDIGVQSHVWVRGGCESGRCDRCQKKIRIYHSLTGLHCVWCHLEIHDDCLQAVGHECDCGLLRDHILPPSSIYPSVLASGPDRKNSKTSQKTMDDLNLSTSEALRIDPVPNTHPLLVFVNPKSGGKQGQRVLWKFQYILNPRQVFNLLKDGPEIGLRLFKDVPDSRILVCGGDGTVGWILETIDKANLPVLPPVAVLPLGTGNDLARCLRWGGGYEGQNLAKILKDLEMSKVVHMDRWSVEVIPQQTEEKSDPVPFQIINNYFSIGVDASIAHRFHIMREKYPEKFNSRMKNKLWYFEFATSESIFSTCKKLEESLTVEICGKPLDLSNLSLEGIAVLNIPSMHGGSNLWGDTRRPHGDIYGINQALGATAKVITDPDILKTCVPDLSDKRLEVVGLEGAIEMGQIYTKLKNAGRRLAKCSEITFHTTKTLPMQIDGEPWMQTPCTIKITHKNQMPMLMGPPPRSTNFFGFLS
T1 sequence (Q13574 1-929 isoform Q13574-4): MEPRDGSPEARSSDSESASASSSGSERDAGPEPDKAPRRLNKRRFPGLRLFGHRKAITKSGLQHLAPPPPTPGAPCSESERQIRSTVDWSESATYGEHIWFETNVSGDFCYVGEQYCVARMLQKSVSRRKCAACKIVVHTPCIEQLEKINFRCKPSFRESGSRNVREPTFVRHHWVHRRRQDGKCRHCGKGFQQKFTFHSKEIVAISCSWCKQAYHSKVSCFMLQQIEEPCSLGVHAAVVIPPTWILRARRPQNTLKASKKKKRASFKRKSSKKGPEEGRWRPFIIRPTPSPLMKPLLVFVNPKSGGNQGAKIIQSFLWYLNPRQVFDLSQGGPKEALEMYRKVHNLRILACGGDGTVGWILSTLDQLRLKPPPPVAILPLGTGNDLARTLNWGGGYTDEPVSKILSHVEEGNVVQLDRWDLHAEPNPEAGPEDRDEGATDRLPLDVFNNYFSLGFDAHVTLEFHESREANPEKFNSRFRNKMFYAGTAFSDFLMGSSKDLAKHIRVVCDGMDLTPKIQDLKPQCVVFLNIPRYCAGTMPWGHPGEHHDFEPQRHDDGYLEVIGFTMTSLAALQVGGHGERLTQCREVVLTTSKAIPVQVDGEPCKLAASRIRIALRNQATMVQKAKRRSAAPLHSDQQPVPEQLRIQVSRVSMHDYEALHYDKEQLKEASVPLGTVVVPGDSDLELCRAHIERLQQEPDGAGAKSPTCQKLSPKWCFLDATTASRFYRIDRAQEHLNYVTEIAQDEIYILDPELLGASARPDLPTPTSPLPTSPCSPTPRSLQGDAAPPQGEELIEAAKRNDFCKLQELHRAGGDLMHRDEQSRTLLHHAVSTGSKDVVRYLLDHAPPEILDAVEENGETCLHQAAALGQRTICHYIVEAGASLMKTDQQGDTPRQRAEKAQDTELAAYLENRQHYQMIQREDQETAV

Row | SMILES | pIC50 [1] | pIC50 [2]
1 | Cn1c(=O)c(C#N)c(N(C)[C@H]2CC[C@H](N(CC3CC3)c3cccc(F)c3)CC2)c2nc(Cl)ccc21 [Example 23, trans-6-chloro-4-((4-((cyclopropylmethyl)(3-fluorophenyl)amino)cyclohexyl)(methyl)amino)-1-methyl-2-oxo-1,2-dihydro-1,5-naphthyridine-3-carbonitrile] | 6.00 to 7.00 | 7.00 to 8.00
2 | Cn1c(=O)c(C#N)c(N(C)[C@H]2CC[C@H](N(CC3CCC3)c3ccc(CCN4CCOCC4)cc3)CC2)c2nc(C#N)ccc21 [Example 172, trans-8-((4-((cyclobutylmethyl)(4-(2-morpholinoethyl)phenyl)amino)cyclohexyl)(methyl)amino)-5-methyl-6-oxo-5,6-dihydro-1,5-naphthyridine-2,7-dicarbonitrile] | ≤ 6.00 | ≤ 6.00
3 | Cc1cc(F)c(F)cc1N(CC1CCC1)[C@H]1CC[C@H](N(C)c2c(C#N)c(=O)n(C)c3ccc(C#N)nc23)CC1 [Example 138, trans-8-((4-((cyclobutylmethyl)(4,5-difluoro-2-methylphenyl)amino)cyclohexyl)(methyl)amino)-5-methyl-6-oxo-5,6-dihydro-1,5-naphthyridine-2,7-dicarbonitrile] | ≤ 6.00 | ≤ 6.00
4 | Cn1c(=O)c(C#N)c(N(C)[C@H]2CC[C@H](N(CC3CC3)c3cc4c(cn3)OCO4)CC2)c2nc(C#N)ccc21 [Example 212, trans-8-((-4-([1,3]dioxolo[4,5-c]pyridin-6-yl(cyclopropylmethyl)amino)cyclohexyl)(methyl)amino)-5-methyl-6-oxo-5,6-dihydro-1,5-naphthyridine-2,7-dicarbonitrile] | ≤ 6.00 | ≤ 6.00
5 | Cn1c(=O)c(C#N)c(N(C)[C@H]2CC[C@@H](N(CC3CC3)c3cccc(F)c3)CC2)c2nc(Cl)ccc21 [Example 22, cis-6-chloro-4-((4-((cyclopropylmethyl)(3-fluorophenyl)amino)cyclohexyl)(methyl)amino)-1-methyl-2-oxo-1,2-dihydro-1,5-naphthyridine-3-carbonitrile] | ≤ 6.00 | ≤ 6.00
6 | Cn1c(=O)cc(N(C)[C@H]2CC[C@@H](N(CC3COCCO3)c3ccc4c(c3)OCO4)CC2)c2nc(C#N)ccc21 (stereo partly drawn) [Example 181, cis-8-((4-(((1,4-dioxan-2-yl)methyl)(benzo[d][1,3]dioxol-5-yl)amino)cyclohexyl)(methyl)amino)-5-methyl-6-oxo-5,6-dihydro-1,5-naphthyridine-2-carbonitrile] | 6.00 to 7.00 | 7.00 to 8.00
7 | Cn1c(=O)cc(N(C)[C@H]2CC[C@H](N(CC3CCC3)c3ccc(F)cc3)CC2)c2nc(C#N)ccc21 [Example 44, trans-8-((-4-((cyclobutylmethyl)(4-fluorophenyl)amino)cyclohexyl)(methyl)amino)-5-methyl-6-oxo-5,6-dihydro-1,5-naphthyridine-2-carbonitrile] | ≤ 6.00 | 6.00 to 7.00
8 | Cn1c(=O)cc(N(C)[C@H]2CC[C@H](N(c3ccccc3)C3CC3)CC2)c2nc(C#N)ccc21 [Example 3T, trans-8-((4-(cyclopropyl(phenyl)amino)cyclohexyl)(methyl)amino)-5-methyl-6-oxo-5,6-dihydro-1,5-naphthyridine-2-carbonitrile] | 6.00 to 7.00 | 6.00 to 7.00
9 | Cn1c(=O)c(C#N)c(N(C)[C@H]2CC[C@@H](N(C[C@@H]3CCOC3)c3ccc(F)cc3)CC2)c2nc(C#N)ccc21 [Example 67] | 6.00 to 7.00 | 7.00 to 8.00
10 | COc1cc(F)ccc1N(C1CCC1)[C@H]1CC[C@@H](N(C)c2c(C#N)c(=O)n(C)c3ccc(Cl)nc23)CC1 [Example 17, cis-6-chloro-4-((4-(cyclobutyl(4-fluoro-2-methoxyphenyl)amino)cyclohexyl)(methyl)amino)-1-methyl-2-oxo-1,2-dihydro-1,5-naphthyridine-3-carbonitrile] | ≤ 6.00 | ≤ 6.00
11 | Cc1cc(F)ccc1N(CC1CC(F)(F)C1)[C@H]1CC[C@H](N(C)c2c(C#N)c(=O)n(C)c3ccc(C#N)nc23)CC1 [Example 178, trans-8-((-4-(((3,3-difluorocyclobutyl)methyl)(4-fluoro-2-methylphenyl)amino)cyclohexyl)(methyl)amino)-5-methyl-6-oxo-5,6-dihydro-1,5-naphthyridine-2,7-dicarbonitrile] | 6.00 to 7.00 | 6.00 to 7.00
12 | COc1cc(N(CC2CC2)[C@H]2CC[C@H](N(C)c3cc(=O)n(C)c4ccc(C#N)nc34)CC2)cc(F)c1F [Example 95] | 6.00 to 7.00 | ≤ 6.00
13 | Cn1c(=O)c(C#N)c(N(C)[C@H]2CC[C@@H](N(CC3CCC3)c3ccc4c(c3)OCO4)CC2)c2nc(C#N)ccc21 [Example 97] | 7.00 to 8.00 | > 8.00
14 | Cc1ccc(N(CC2CCC2)[C@H]2CC[C@@H](N(C)c3cc(=O)n(C)c4ccc(C#N)nc34)CC2)cc1OC(F)F [Example 147, cis-8-((-4-((cyclobutylmethyl)(3-(difluoromethoxy)-4-methylphenyl)amino)cyclohexyl)(methyl)amino)-5-methyl-6-oxo-5,6-dihydro-1,5-naphthyridine-2-carbonitrile] | 6.00 to 7.00 | 7.00 to 8.00
15 | COc1cc(F)ccc1N(C)[C@H]1CC[C@H](N(C)c2c(C#N)c(=O)n(C)c3ccc(C#N)nc23)CC1 [Example 46, trans-8-((4-((4-fluoro-2-methoxyphenyl)(methyl)amino)cyclohexyl)(methyl)amino)-5-methyl-6-oxo-5,6-dihydro-1,5-naphthyridine-2,7-dicarbonitrile] | 7.00 to 8.00 | 6.00 to 7.00
16 | CN1C(=O)COc2ccc(N(CC3COCCO3)[C@H]3CC[C@@H](N(C)c4c(C#N)c(=O)n(C)c5ccc(C#N)nc45)CC3)cc21 (stereo partly drawn) [Example 187, cis-8-((4-(((1,4-dioxan-2-yl)methyl)(4-methyl-3-oxo-3,4-dihydro-2H-benzo[b][1,4]oxazin-6-yl)amino)cyclohexyl)(methyl)amino)-5-methyl-6-oxo-5,6-dihydro-1,5-naphthyridine-2,7-dicarbonitrile] | 6.00 to 7.00 | 6.00 to 7.00
17 | Cn1c(=O)c(C#N)c(N2CCC(N(CC3CC3)c3ccccc3O)CC2)c2nc(Cl)ccc21 [Example 1E, 6-Chloro-4-(4-((cyclopropylmethyl)(2-hydroxyphenyl)amino)piperidin-1-yl)-1-methyl-2-oxo-1,2-dihydro-1,5-naphthyridine-3-carbonitrile] | ≤ 6.00 | 7.00 to 8.00
18 | Cn1c(=O)c(C#N)c(N(C)[C@H]2CC[C@@H](N(C[C@H]3C[C@H](O)C3)c3ccc(F)cc3)CC2)c2nc(C#N)ccc21 [Example 201, cis-8-((-4-((4-fluorophenyl)((trans-3-hydroxycyclobutyl)methyl)amino)cyclohexyl) (methyl)amino)-5-methyl-6-oxo-5,6-dihydro-1,5-naphthyridine-2,7-dicarbonitrile] | ≤ 6.00 | > 8.00
19 | COc1cc(N(CC2CC2)[C@H]2CC[C@@H](N(C)c3cc(=O)n(C)c4ccc(C#N)nc34)CC2)cc(OC)c1F [Example 124, cis-8-((-4-((cyclopropylmethyl)(4-fluoro-3,5-dimethoxyphenyl)amino)cyclohexyl)(methyl)amino)-5-methyl-6-oxo-5,6-dihydro-1,5-naphthyridine-2-carbonitrile] | 7.00 to 8.00 | 6.00 to 7.00
20 | COc1cccc(N(CC2CC2)[C@H]2CC[C@H](N(C)c3c(C#N)c(=O)n(C)c4cccnc34)CC2)c1 [Example 13, trans-4-((4-((cyclopropylmethyl)(3-methoxyphenyl)amino)cyclohexyl)(methyl)amino)-1-methyl-2-oxo-1,2-dihydro-1,5-naphthyridine-3-carbonitrile] | ≤ 6.00 | 7.00 to 8.00
21 | Cn1c(=O)c(C#N)c(N(C)[C@H]2CC[C@@H](N(c3ccc(F)cc3)C3CCC3)CC2)c2nc(Cl)ccc21 [Example 10, cis-6-chloro-4-((4-(cyclobutyl(4-fluorophenyl)amino)cyclohexyl)(methyl)amino)-1-methyl-2-oxo-1,2-dihydro-1,5-naphthyridine-3-carbonitrile] | 6.00 to 7.00 | > 8.00
22 | Cc1cc(F)ccc1N(CC1CCC1)[C@H]1CC[C@H](N(C)c2c(C#N)c(=O)n(C)c3ccc(C#N)nc23)CC1 [Example 106, trans-8-((4-((cyclobutylmethyl)(4-fluoro-2-methylphenyl)amino)cyclohexyl)(methyl)amino)-5-methyl-6-oxo-5,6-dihydro-1,5-naphthyridine-2,7-dicarbonitrile] | 6.00 to 7.00 | 6.00 to 7.00
23 | COc1cccc(N(CC2CC2)[C@H]2CC[C@H](N(C)c3c(C#N)c(=O)n(C)c4ccc(C#N)nc34)CC2)c1 [Example 29, trans-8-((4-((cyclopropylmethyl)(3-methoxyphenyl)amino)cyclohexyl)(methyl)amino)-5-methyl-6-oxo-5,6-dihydro-1,5-naphthyridine-2,7-dicarbonitrile] | ≤ 6.00 | 6.00 to 7.00
24 | Cc1cc(F)ccc1N(CC1CCCO1)C1CCC(N(C)c2c(C#N)c(=O)n(C)c3ccc(C#N)nc23)CC1 (stereo in doubt) [Example 153, cis-8-((-4-((4-fluoro-2-methylphenyl) ((tetrahydrofuran-2-yl)methyl)amino)cyclohexyl) (methyl)amino)-5-methyl-6-oxo-5,6-dihydro-1,5-naphthyridine-2,7-dicarbonitrile] | 6.00 to 7.00 | 6.00 to 7.00
25 | Cn1c(=O)cc(N(C)[C@H]2CC[C@@H](N(C(=O)C3CC3)c3ccc(F)cc3)CC2)c2nc(C#N)ccc21 [Example 208, cis-N-(4-((6-cyano-1-methyl-2-oxo-1,2-dihydro-1,5-naphthyridin-4-yl)(methyl)amino)cyclohexyl)-N-(4-fluorophenyl)cyclopropanecarboxamide] | ≤ 6.00 | 6.00 to 7.00
